This note sets out measurements from patent US20210060119A1, “OXYTOCIN COMPOSITIONS FOR TREATMENT OF TINNITUS” (New York University, priority 2019, published 2021).

The test can be described thus: clinical use of intranasal oxytocin formulations to treat tinnitus (patient reports, Tinnitus Handicap Inventory). The format is in vivo, human. The source says: In an aspect, this disclosure provides a method for treating tinnitus. The method comprises administering intranasally to an individual a composition comprising or consisting essentially of oxytocin, wherein such administration results in treatment of tinnitus. The effectiveness of treatment of tinnitus may be monitored by quantifying tinnitus, such as by self-evaluation using clinically accepted techniques. An example is the Tinnitus Handicap Inventory (“THI”), a validated and published measurement technique. (Newman et al., Arch Otolaryngol Head Neck Surg, 1996, February 122(2), 143-8). In an embodiment, the improvement in an individual using THI may comprise an improvement of at least 10%. In various embodiments, the improvement may comprise from 10-100%, such as at least 20, 30, 40, 50, 60, 70, 80, 90, 95, or 99%.
This example describes clinical use of the present formulations to treat tinnitus. […] The formulation contained oxytocin, magnesium chloride, citric acid, and sodium citrate in sterile water. […] The dose was then increased to 45 IU (3 sprays of 15 IU) 4 times daily. […] A thickener was then added to the formulation keeping the oxytocin amount the same. […] Their score on the Tinnitus Handicap Inventory reduced from a pretreatment score of 96 (meaning a catastrophic level) to a current score of 14 (meaning mild or no tinnitus). The patient has remained improved over 1 year since initiating therapy. Their current dose is 22.5 IU in each nostril 4 times daily. Since their tinnitus occurs in distinct cycles, at times when tinnitus severity is loudest, they increase the dose to 5 times daily for 2 days. […] Their current handicap inventory is 8.
The dose was increased to 45 IU 4 times daily resulting in a decrease in tinnitus volume by approximately 30%.
In another patient, who developed constant tinnitus after a neck injury one year ago, a dose of 45 IU (22.5 IU in each nostril) 4 times daily was used for 30 days and is still ongoing. It has provided about 15% improvement.
In another patient with constant tinnitus a dose of 30 IU 4 times daily has been started and treatment is ongoing.

The mark [1] stands for this setting: fifth patient, constant tinnitus, 30 IU 4 times daily, after 2 weeks.
[2] abbreviates: first patient, 22.5 IU in each nostril 4 times daily, 5 times daily for 2 days when loudest, past 3 months.

`CC[C@H](C)[C@@H]1NC(=O)[C@H](Cc2ccc(O)cc2)NC(=O)[C@@H](N)CSSC[C@@H](C(=O)N2CCC[C@H]2C(=O)N[C@@H](CC(C)C)C(=O)NCC(N)=O)NC(=O)[C@H](CC(N)=O)NC(=O)[C@H](CCC(N)=O)NC1=O` [oxytocin, Cys-Tyr-Ile-Gln-Asn-Cys-Pro-Leu-Gly (SEQ ID NO:1)]: under setting [1], the “time without noticing the tinnitus” value is listed as “several hours per day without noticing the tinnitus” and the tinnitus intensity entry was “tinnitus intensity has lowered”. The “time patient has remained improved since initiating therapy” value (first patient) is “over 1 year”. In addition, under setting [2], the “longest time without tinnitus” value is reported as not above 10 days and the tinnitus severity result is “reduced tinnitus severity”. Moreover, where the note is “first patient, 22.5 IU in each nostril 4 times daily, 5 times daily for 2 days when loudest, pretreatment 96”, the “current handicap inventory (Tinnitus Handicap Inventory)” value was 8. Besides, the “score on the Tinnitus Handicap Inventory” value (first patient, formulation with thickener, pretreatment score 96 (catastrophic level), 14 means mild or no tinnitus) amounted to 14. Besides, the tinnitus free period entry (first patient, thickener added, same oxytocin amount (45 IU 4 times daily)) is reported as “several days of tinnitus free period”. For the same compound, the improvement result (fourth patient, constant tinnitus after neck injury, 45 IU (22.5 IU in each nostril) 4 times daily for 30 days) is listed as “about 15%”. Further, the tinnitus volume entry (fourth patient, dose raised on occasions to 5 times daily) is on record as “diminished tinnitus volume”. For the setting “general statement, lower amounts of oxytocin (under 20 IU per day)”, the relief of tinnitus entry is reported as “did not result in any significant relief”. The “time patient remains improved” value (second patient, 45 IU twice daily) is recorded as “more than a year”. Besides, the benefit entry (third patient, tinnitus caused by a drug, 30 IU twice daily) is listed as “without benefit”. The “decrease in tinnitus volume” value (third patient, tinnitus caused by a drug, 45 IU 4 times daily) is on record as “approximately 30%”.
